Reference: publication PMC9958325 (Nature Communications, 2023)
Values joined by “and” are separate entries in the source; they are usually repeats but may differ in a detail not shown here. Equal entries are not always repeated. Where two headings read alike, the source gives them in different places.

Assays:
in vitro [1] = conditions: human, HeLa-ACE2-TMPRSS2 cells
in vitro [2] = conditions: African green monkey, VeroE6 cells
VeroE6 cells [3] = conditions: African green monkey, 6 h
in vivo = conditions: male, PXB (human liver-chimeric), mouse, po, 10 mg/kg
VeroE6 cells [4] = test: Cytotoxicity (WST-8) in noninfected VeroE6 cells
SARS-CoV-2UW-5250^Delta = system: SARS-CoV-2UW-5250^Delta; set-up: species or system hACE2 knock-in mice; conditions: mouse, in vivo, ip, 100 mg/kg
[5] = mouse, in vivo
[6] = system: SARS-CoV-2NC928-2N^Omicron_BA.1; set-up: species or system hACE2 knock-in mice; conditions: mouse, in vivo; for Virus titer in lung: ip
[7] = Pharmacokinetic study in ICR mice
SARS-CoV-2 M^pro/3CL^pro = SARS-CoV-2 M^pro/3CL^pro (Severe acute respiratory syndrome coronavirus 2, UniProt P0DTD1); assay type: biochemical; set-up: IC95, individual assays / IC95, Average: unit: µM
SARS-CoV-2 M^pro = SARS-CoV-2 M^pro (Severe acute respiratory syndrome coronavirus 2, UniProt P0DTD1); conditions: PDB 8DOX (TKB245), 8DPR (TKB248)
A549-ACE2-TMPRSS2 cells = conditions: read-out: CC50, A549-ACE2-TMPRSS2; noninfected cells
HeLa-ACE2-TMPRSS2 cells = test: Cytotoxicity (WST-8) in noninfected HeLa-ACE2-TMPRSS2 cells; conditions: read-out: CC50, HeLa-ACE2-TMPRSS2
human cathepsin L = molecular target: T1, human cathepsin L (Homo sapiens, UniProt P07711); test: Human cathepsin L inhibitor screening assay; assay type: biochemical; conditions: for % inhibition against human Cathepsin: triplicate; for IC50: 30 minute incubation, mean ± 1 S.D., n=3
T1 construct: purchased abcam ab197012
T1 sequence (P07711 114-333): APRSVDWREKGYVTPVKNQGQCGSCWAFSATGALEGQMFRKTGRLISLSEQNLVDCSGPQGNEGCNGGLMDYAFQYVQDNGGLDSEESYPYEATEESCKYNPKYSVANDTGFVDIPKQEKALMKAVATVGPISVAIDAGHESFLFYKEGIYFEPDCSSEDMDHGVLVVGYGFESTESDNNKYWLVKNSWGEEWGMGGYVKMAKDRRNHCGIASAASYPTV

[8] = molecular target: authentic SARS-CoV-2 M^pro (Severe acute respiratory syndrome coronavirus 2, UniProt P0DTD1)
Glycine-added M^pro = Glycine-added M^pro (Severe acute respiratory syndrome coronavirus 2, UniProt P0DTD1)
[9] = system: SARS-CoV-2NCD1288^Omicron_BA.2; set-up: species or system hACE2 knock-in mice; conditions: mouse, in vivo, ip, 120 mg/kg
[10] = read-out: CC50, VeroE6 + 2 µM CP100356, CP100356 2 µM
[11] = source data, M^pro enzyme assay

| SMILES | CC50 (HepG2 cells) | CC50 (VeroE6 cells [4]; read-out: CC50, VeroE6) | CC50 (VeroE6 cells [4]; [10]) | SARS-CoV2 M^pro enzyme assay IC95 (SARS-CoV-2 M^pro/3CL^pro; FRET, mean ± 1 S.D.) | IC95, Average (SARS-CoV-2 M^pro/3CL^pro; [11]) | Binding mode in co-crystal structure (SARS-CoV-2 M^pro) | CC50 (A549-ACE2-TMPRSS2 cells) | CC50 (HeLa-ACE2-TMPRSS2 cells) | Effect on human cathepsin L (in words) (human cathepsin L) | % inhibition against human Cathepsin (human cathepsin L; 0.00106 µM) | % inhibition against human Cathepsin (human cathepsin L; 0.0053 µM) | % inhibition against human Cathepsin (human cathepsin L; 0.0266 µM) | % inhibition against human Cathepsin (human cathepsin L; 0.6 µM) | % inhibition against human Cathepsin (human cathepsin L; 3.3 µM) | % inhibition against human Cathepsin (human cathepsin L; 16.6 µM) | IC50 (human cathepsin L) | also measured |
| --- | --- | --- | --- | --- | --- | --- | --- | --- | --- | --- | --- | --- | --- | --- | --- | --- | --- |
| CC(C)(C)[C@H](NC(=O)C(F)(F)F)C(=O)N1C[C@H]2[C@@H]([C@H]1C(=O)N[C@H](C#N)C[C@@H]1CCNC1=O)C2(C)C [Nirmatrelvir, reference compound] |  |  |  |  |  |  |  |  |  |  |  |  |  |  |  |  | CC50 at 3 days (in vitro [1]): > 100 µM; CC50 at 3 days (in vitro [2]): > 100 µM; Intracellular amount, avg (VeroE6 cells [3]; 10 µM): 0 pmol(total); Intracellular amount, individual (VeroE6 cells [3]; 10 µM): 0 pmol(total); intracellular compound, /1x10^6 (VeroE6 cells [3]; 10 µM): 0 /1x10^6; intracellular compound, pmol(total) (VeroE6 cells [3]; 10 µM): 0 pmol; Intracellular amount, avg (VeroE6 cells [3]; 50 µM): 0.03906 pmol(total); Intracellular amount, avg (VeroE6 cells [3]; 100 µM): 0.1149 pmol(total); half-life (in vivo): 1.03 h |
| CC(C)(C)[C@H](NC(=O)C(F)(F)F)C(=O)N1C[C@H]2[C@@H]([C@H]1C(=O)N[C@@H](C[C@@H]1CCNC1=O)C(=O)c1nc3c(F)cccc3s1)C2(C)C [TKB245] | > 200 µM | > 100 µM | > 100 µM | 0.14 ± 0.07 µM | 0.1363 | covalent bond formation between Cys145 and 4-fluorobenzothioazoly ketone | > 100 µM | > 100 µM | neither of human cysteine enzymes, cathepsin L and calpain, were significantly affected | 0% | 0% | 0% and 0.8979% | 0% and 2.5149% | 9.142% and 0% and 2.217% | 21.1326% and 17.6611% and 11.0896% | > 16 µM | Virus titer in lung (SARS-CoV-2UW-5250^Delta): 6.24 Log10 PFU/gr and 6.89 Log10 PFU/gr; Body weights and survival rates [5]: no significant changes were recorded; Virus titer in lung ([6]; 100 mg/kg): 2.95 Log10 PFU/gr and 3.55 Log10 PFU/gr; Plasma concentration ([7]; ICR mice, i.p. 10 mg/kg, 2:00:00, individual mice, 10 mg/kg): 528.9 ng/mL; Plasma concentration ([7]; ICR, i.p., 120 min, individual animals (2 per time point), LC/MS/MS): 528.86 ng/mL; IC95, individual assays (SARS-CoV-2 M^pro/3CL^pro; source data, M^pro enzyme assay, listed as TKB0245): 0.096 and 0.213 and 0.100 |
| CC(C)(C)[C@H](NC(=O)C(F)(F)F)C(=O)N1C[C@H]2[C@@H]([C@H]1C(=S)N[C@@H](C[C@@H]1CCNC1=O)C(=O)c1nc3c(F)cccc3s1)C2(C)C [TKB248] | > 200 µM | > 100 µM | > 100 µM | 6.00 ± 5.29 µM | 6.000 | covalent bond formation between Cys145 and 4-fluorobenzothioazoly ketone | > 100 µM | > 100 µM | neither of human cysteine enzymes, cathepsin L and calpain, were significantly affected | 0% | 0% | 0% | 0.7754% and 0% | 3.874% and 0.1997% and 5.01% | 10.3453% and 15.2677% and 19.1834% | > 16 µM | Body weights and survival rates ([5]; ip, 120 mg/kg): no significant changes were recorded; lung virus titer, ave of log pfu/g [6]: 4.602 log pfu/g and 4.836 log pfu/g; Virus titer in lung ([6]; 120 mg/kg): 4.60 Log10 PFU/gr and 4.84 Log10 PFU/gr; Peak ratio, Dimer-1X compound [8]: 42.6% and 25.2%; Peak ratio, M^pro Monomer [8]: 8.6% and 7.7%; IC50 (SARS-CoV-2 M^pro/3CL^pro; FRET, mean ± 1 S.D., read-out: SARS-CoV2 M^pro enzyme assay IC50): 0.074 ± 0.034 µM; IC95, individual assays (SARS-CoV-2 M^pro/3CL^pro; source data, M^pro enzyme assay, listed as TKB0248): 12.00 and 2.000 and 4.000; IC50 (SARS-CoV-2 M^pro/3CL^pro; source data, M^pro enzyme assay, listed as TKB0248, read-out: IC50, individual assays): 0.0472 µM and 0.0622 µM and 0.113 µM; IC50 (SARS-CoV-2 M^pro/3CL^pro; source data, M^pro enzyme assay, read-out: IC50, Average): 0.0741 µM; Peak ratio, Monomer (Glycine-added M^pro): 36.5%; Peak ratio, Monomer-1X compound (Glycine-added M^pro): 21.2%; Virus titer in lung [9]: 5.57 Log10 PFU/gr and 4.93 Log10 PFU/gr |
